These results are taken from US20240059688A1, “CONOLIDINE ANALOGUES AS SELECTIVE ACKR3 MODULATORS FOR THE TREATMENT OF CANCER” (Luxembourg Institute of Health (LIH), priority 2020, published 2024).

Holding throughout (assay type): cell-based
For one assay, the target named is MOR (Homo sapiens, UniProt P35372). The assay is described as follows: MOR calcium mobilization agonist/antagonist screen (CHO-RD-HGA16 cells). Further details: host or cells: CHO-RD-HGA16. Particulars: single concentration; for Emax: CHO-RD-HGA16, agonist screen, control agonist DAMGO.
Chain of MOR (P35372 whole entry): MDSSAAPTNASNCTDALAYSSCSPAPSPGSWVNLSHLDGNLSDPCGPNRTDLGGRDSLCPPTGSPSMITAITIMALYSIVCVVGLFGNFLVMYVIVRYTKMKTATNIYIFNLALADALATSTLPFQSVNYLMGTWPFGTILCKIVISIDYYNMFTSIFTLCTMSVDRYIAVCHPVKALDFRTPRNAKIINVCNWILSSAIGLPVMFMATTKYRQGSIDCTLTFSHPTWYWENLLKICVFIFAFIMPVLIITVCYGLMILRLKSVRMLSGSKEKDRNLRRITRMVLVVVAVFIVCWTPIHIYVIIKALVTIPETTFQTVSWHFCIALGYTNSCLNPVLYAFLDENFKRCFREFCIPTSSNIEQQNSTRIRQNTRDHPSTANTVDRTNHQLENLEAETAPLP
Another assay has as its target KOR (Homo sapiens, UniProt P41145). The assay is described as follows: KOR calcium mobilization agonist/antagonist screen (CHO-RD-HGA16 cells). Conditions: single concentration; for Emax: CHO-RD-HGA16, agonist screen, control agonist U69,593; for KOR Calcium % U69, 593 Inhibition: antagonist screen, vs EC60 of U69,593. Set-up: host or cells: CHO-RD-HGA16.
For another assay, the target named is T1, CaV 3.2 (Homo sapiens, UniProt O95180).
T1 construct: expressed in transfected cells
T1 sequence (O95180 whole entry): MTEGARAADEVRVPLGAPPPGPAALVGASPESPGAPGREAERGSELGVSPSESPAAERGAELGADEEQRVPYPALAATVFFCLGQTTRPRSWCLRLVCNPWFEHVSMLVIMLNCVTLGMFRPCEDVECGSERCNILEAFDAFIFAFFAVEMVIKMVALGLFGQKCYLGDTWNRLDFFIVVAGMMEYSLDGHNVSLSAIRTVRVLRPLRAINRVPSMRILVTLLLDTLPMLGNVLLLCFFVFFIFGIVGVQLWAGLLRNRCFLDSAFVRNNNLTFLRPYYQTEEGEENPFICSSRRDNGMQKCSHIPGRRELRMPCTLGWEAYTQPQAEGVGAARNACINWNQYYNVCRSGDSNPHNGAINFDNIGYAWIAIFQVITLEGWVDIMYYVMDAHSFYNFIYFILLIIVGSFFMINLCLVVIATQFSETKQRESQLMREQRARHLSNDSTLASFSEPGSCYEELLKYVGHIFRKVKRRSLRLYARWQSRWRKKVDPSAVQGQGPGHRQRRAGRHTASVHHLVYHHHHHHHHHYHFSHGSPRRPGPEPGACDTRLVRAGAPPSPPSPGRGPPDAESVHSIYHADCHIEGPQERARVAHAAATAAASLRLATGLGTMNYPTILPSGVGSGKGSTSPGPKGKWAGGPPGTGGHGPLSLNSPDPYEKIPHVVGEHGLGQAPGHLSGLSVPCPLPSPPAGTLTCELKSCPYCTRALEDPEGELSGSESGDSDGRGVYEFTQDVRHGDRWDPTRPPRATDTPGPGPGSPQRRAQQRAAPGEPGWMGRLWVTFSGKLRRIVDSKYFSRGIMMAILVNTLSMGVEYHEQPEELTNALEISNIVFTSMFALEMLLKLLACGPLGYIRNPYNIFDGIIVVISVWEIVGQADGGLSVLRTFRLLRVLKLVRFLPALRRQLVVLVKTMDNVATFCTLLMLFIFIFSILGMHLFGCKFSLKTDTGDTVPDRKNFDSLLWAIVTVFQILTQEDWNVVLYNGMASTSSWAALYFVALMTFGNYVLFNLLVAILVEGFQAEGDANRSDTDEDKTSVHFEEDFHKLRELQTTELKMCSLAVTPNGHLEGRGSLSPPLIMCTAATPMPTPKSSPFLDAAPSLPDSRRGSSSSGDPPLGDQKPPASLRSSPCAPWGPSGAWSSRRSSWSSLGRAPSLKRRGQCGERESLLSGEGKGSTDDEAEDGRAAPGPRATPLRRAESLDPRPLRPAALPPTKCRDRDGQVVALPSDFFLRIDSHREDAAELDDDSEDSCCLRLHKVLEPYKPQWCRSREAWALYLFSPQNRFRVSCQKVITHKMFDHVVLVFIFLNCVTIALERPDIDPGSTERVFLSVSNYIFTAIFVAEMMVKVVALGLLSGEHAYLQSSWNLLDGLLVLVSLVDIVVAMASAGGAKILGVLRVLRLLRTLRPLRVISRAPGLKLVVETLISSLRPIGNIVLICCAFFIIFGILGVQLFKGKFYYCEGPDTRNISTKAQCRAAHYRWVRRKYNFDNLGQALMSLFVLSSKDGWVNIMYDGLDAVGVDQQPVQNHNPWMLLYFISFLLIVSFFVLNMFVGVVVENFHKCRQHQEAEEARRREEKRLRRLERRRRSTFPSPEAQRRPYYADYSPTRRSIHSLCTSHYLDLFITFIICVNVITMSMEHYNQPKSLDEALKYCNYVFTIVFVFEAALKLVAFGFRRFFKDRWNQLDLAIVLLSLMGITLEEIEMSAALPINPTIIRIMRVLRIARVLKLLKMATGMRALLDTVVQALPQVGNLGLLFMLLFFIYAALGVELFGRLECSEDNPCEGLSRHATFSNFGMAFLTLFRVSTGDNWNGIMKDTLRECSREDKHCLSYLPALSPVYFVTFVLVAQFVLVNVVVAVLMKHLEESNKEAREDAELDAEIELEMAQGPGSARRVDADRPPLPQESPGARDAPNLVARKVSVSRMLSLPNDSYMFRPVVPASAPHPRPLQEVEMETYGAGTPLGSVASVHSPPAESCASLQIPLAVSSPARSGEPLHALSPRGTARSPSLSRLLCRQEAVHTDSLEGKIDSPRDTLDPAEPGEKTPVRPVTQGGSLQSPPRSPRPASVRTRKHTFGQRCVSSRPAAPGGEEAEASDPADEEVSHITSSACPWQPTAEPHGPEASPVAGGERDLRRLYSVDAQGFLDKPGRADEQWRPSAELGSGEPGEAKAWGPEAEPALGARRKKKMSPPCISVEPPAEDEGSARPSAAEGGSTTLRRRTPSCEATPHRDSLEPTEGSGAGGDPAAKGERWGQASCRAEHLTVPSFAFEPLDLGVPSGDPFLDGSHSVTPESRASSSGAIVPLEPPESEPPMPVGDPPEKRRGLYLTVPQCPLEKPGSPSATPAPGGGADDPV
Kind of assay: CaV 3.2 calcium assay in stable human CaV3.2-HEK293 cells. Conditions: control agonist calcium chloride.

A further assay addresses ACKR3 (Homo sapiens, UniProt P25106). Kind of assay: ACKR3 β-arrestin recruitment assay (PathHunter, β-galactosidase complementation). Conditions: for Emax: read-out: ACKR3 β-arrestin % CXCL12 Emax ± SEM; for EC50: stable human ACKR3-β-arrestin-2-CHO cells, mean ± SEM, at least two independent experiments in duplicate. An outline of the steps:
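Agonist mode in PathHunter CHO cells expressing human ACKR3-β-arrestin-2, compounds added in DPBS/1% DMSO for 1.5 hr at 37° C, then detection 1 hr at room temperature, luminescence read. CXCR4 run in C2C12 cells with a 3 hr Cell Plating Reagent 4 preincubation. EC50 and % Emax from three-parameter fits, CXCL-12 as reference agonist; ≥2 independent experiments in duplicate.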
(In general: Arrestin recruitment assays detect the binding of arrestin to an activated receptor.)

Marks after values point to notes of the source that are not given here.

Chain of KOR (P41145 whole entry): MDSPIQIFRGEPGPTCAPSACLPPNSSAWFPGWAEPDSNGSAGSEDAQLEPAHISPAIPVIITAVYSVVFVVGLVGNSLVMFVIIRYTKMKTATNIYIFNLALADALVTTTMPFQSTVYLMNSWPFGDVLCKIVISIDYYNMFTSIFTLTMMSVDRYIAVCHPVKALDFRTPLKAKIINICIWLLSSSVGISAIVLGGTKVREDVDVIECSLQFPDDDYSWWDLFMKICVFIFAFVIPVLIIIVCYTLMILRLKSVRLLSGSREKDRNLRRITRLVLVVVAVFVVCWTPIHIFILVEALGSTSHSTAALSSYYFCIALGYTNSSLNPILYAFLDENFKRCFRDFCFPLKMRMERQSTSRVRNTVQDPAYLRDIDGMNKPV
Chain of ACKR3 (P25106 whole entry): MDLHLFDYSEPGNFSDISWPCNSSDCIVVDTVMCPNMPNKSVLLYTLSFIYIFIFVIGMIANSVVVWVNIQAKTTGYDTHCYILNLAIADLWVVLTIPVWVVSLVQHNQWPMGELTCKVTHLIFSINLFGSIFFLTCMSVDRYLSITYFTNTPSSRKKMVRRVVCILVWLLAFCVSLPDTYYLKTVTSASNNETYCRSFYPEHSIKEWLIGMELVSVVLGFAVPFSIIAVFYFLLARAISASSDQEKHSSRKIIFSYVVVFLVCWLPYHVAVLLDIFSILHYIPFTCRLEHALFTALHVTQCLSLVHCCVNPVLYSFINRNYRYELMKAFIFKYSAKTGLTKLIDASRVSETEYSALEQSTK

For the compound `C/C=C1/CN2CC[C@H]1C(=O)c1[nH]c3ccccc3c1C2` [WW-1, (4E,5R)-4-ethylidene-1,4,5,7-tetrahydro-2,5-ethanoazocino[4,3-b]indol-6(3H)-one], the Emax (commonly the greatest response seen or fitted, relative to the assay's reference) at MOR was 0%; at KOR, 9%; at ACKR3 it was 181 ± 4%. The “MOR Calcium % DAMGO Inhibition” value at MOR (antagonist screen, vs EC60 of DAMGO) is listed as 3%. In addition, the “KOR Calcium % U69, 593 Inhibition” value at KOR worked out at 11%. In addition, on CaV 3.2, the “CaV 3.2 % CaCl2 Inhibition” value is −7%. Also, the EC50 – broadly, the concentration that produces a half-maximal response – on ACKR3 was found to be 27.3 ± 0.44 µM.
For the compound `C/C=C1/CN(CCCCC)CC[C@H]1C(=O)c1cc2ccccc2[nH]1` [WW-12, [(3E,4R)-3-ethylidene-1-pentylpiperidin-4-yl](1H-indol-2-yl)methanone], the figures for the Emax on MOR, on KOR and at ACKR3 were 11%, 7% and 140 ± 11%, respectively. Moreover, the “KOR Calcium % U69, 593 Inhibition” value at KOR is reported as 69** %. Also, on CaV 3.2, the “CaV 3.2 % CaCl2 Inhibition” value stood at 42%. This compound came in with an EC50 at ACKR3 of 0.353 ± 0.019 µM.
